In PMC9278656 (Journal of medicinal chemistry, 2021):
Read-outs that look alike come from different tables or passages of the source.

Key:
[1] = tested on: p53^R175H; test: Immunofluorescence with conformation-specific antibodies PAB1620/PAB240; assay type: cell-based
[2] = Ionophore activity; settings: larger number indicates weaker ionophore activity
[3] = Caco-2 permeability; assay type: in vitro ADME; settings: human
[4] = tested on: Rat Sodium Channel site 2; test: CEREP safety screen, sodium channel site 2; assay type: binding; settings: 10 μM
[5] = molecular target: Human Norepinephrine Transporter (Homo sapiens, UniProt P23975); test: CEREP safety screen, norepinephrine transporter; assay type: binding; settings: 10 μM
Chain of Human Norepinephrine Transporter (P23975 whole entry): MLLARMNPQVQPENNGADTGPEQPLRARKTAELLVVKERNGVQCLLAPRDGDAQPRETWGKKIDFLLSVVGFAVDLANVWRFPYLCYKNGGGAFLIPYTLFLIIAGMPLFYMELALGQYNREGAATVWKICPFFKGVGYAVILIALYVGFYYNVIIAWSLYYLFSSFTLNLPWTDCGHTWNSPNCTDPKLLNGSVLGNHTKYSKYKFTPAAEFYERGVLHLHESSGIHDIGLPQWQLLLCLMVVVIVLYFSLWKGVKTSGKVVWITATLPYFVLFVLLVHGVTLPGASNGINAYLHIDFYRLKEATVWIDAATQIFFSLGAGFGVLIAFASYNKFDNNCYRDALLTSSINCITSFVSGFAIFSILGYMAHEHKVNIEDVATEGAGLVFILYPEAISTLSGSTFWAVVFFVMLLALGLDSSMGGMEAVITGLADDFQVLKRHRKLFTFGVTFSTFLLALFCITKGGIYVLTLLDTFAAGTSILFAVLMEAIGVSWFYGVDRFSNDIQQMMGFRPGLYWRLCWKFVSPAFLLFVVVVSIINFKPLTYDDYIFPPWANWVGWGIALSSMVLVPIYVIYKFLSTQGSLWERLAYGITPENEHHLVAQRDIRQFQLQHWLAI

[6] = tested on: p53 wild type and p53 null cell lines; test: Cell kill in p53 wild type and p53 null cell lines; assay type: cell-based; settings: allele selectivity, Suppl. Figure S1
[7] = tested on: MDA-MB-468 (p53^R273H) tumors; test: Xenograft tumor assay, MDA-MB-468; assay type: in vivo, nude mice NCr nu/nu; settings: non Zn-deficient mutation, Suppl. Figure S2
[8] = NCr nu/nu nude, mouse, in vivo, ip
[9] = cited from earlier work
[10] = read-out: KZn; order of magnitude, stated in Conclusions

With `C/C(=N\Nc1nc2ccccc2s1)c1ccccn1` [C1, (E)-2-(2-(1-(Pyridin-2-yl)ethylidene)hydrazinyl)benzo[d]thiazole] the “Refolding p53^R175H → wild type” value [1] was “induced a wild-type conformational change”, the “Refolding p53^R175H → wild type” value ([1]; listed as Cl) was “YES” and the “Ionophore Ji drug/Ji DMSO” value [2] was 11.6 -log[mol/m^2s]. For the same compound, the Papp at 90 min, 5 μM [3] was 4.4 ± 0.1 ×10⁻⁶ cm/s, the “Activity against the sodium channel, in words” value [4] was “showed activity” and the “Activity against the norepinephrine transporter, in words” value [5] was “showed activity”. For the same compound, the “Cell kill in p53 wild type and p53 null cell lines” value [6] was “almost no cell kill”, the “Tumor growth inhibition of p53^R273H tumors” value [7] was “did not inhibit the tumor growth” and the “Well tolerated dose without significant weight loss” value [8] was “up to 30 mg/kg”. For the same compound, the Aqueous solubility [9] was “low aqueous solubility”.

In the case of `C/C(=N\NC(=S)N1CCC1)c1ccccn1` [ZMC1, (E)-N′-(1-(Pyridin-2-yl)ethylidene)azetidine-1-carbothiohydrazide, reference compound], the “Ionophore Ji drug/Ji DMSO” value [2] is reported as 12.4 -log[mol/m^2s], the Papp at 90 min, 5 μM [3] is reported as 15.6 ± 1.3 ×10⁻⁶ cm/s and the Kd [10] is reported as 10 nM.
